pIC50: −log10 of the molar value.

Our source for the IC50 values is ChEMBL document CHEMBL1132049, “Synthesis of novel analogues of the delta opioid ligand SNC-80 using REM resin” (Bioorg Med Chem Lett, 1999).

The target of assay [1] is T1, Delta-type opioid receptor (Homo sapiens, UniProt P41143). The assay can be described thus: Binding inhibition of [3H]- -naltrindole (0.15 nM) to membranes in CHO cells expressing Opioid receptor delta 1. Type of assay: cell-based.
Assay [2] concerns the target Kappa-type opioid receptor (Cavia porcellus, UniProt P41144). Nature of the assay: Binding affinity towards Opioid receptor kappa 1 using [3H]- U-69,593 (1.5 nM) as radioligand in guinea pig brain membranes. Type of assay: cell membranes, Membrane.
A further assay has as its target Mu-type opioid receptor (Rattus norvegicus, UniProt P33535). Nature of the assay: Binding affinity towards mu opioid receptor using [3H]- -DAMGO (1.5 nM) as radioligand in rat brain membranes. Type of assay: cell membranes.
The target of assay [3] is T1, Delta-type opioid receptor. The assay can be described thus: Compound was tested for inhibition of binding of [3H]- -naltrindole (0.15 nM) to membranes from CHO cells expressing human delta opioid receptor. Type of assay: cell membranes.

T1 sequence (P41143 whole entry): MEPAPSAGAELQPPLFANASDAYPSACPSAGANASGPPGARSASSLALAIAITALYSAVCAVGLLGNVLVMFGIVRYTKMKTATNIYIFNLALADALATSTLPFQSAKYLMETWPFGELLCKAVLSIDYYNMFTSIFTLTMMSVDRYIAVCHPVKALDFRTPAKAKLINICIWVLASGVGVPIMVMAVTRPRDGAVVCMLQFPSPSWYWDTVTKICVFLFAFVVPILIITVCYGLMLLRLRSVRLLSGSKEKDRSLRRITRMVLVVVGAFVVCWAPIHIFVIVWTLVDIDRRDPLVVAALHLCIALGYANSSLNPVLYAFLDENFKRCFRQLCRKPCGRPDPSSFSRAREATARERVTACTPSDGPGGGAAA
Chain of Mu-type opioid receptor (P33535 whole entry): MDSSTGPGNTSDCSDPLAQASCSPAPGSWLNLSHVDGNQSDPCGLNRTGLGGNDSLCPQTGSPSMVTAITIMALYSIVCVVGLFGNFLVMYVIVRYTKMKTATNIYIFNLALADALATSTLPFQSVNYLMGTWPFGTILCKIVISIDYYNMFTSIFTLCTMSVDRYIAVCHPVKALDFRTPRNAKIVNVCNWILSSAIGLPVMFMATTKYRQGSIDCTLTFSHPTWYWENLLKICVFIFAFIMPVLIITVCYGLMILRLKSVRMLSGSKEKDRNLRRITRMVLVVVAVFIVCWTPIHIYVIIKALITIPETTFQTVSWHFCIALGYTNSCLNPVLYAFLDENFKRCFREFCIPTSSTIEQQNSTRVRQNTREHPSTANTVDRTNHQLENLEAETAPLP
Chain of Kappa-type opioid receptor (P41144 whole entry): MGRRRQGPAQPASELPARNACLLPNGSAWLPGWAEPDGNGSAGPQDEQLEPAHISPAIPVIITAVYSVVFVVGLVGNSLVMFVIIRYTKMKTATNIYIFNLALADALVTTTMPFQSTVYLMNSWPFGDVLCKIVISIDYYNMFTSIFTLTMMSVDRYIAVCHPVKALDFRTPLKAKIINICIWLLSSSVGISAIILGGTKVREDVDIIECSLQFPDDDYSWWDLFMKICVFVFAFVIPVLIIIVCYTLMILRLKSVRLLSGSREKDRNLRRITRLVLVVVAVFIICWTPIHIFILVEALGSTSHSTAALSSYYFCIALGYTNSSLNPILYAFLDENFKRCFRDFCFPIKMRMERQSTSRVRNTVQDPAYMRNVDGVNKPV

The compound `C=CCN1CCN(C(c2ccccc2)c2ccc(C(=O)Nc3ccc(OC)cc3)cc2)CC1` (configuration not stated) had a pIC50 in assay [1] of 5.72.

Compound `C=CCN1CCN(C(c2ccccc2)c2ccc(C(=O)NCC)cc2)CC1` (configuration not stated) gave a pIC50 in assay [1] of 6.44.

In turn, `C=CCN1CCN(C(c2ccccc2)c2ccc(C(=O)OCC)cc2)CC1` (configuration not stated) had a pIC50 in assay [1] of 5.86. This pIC50 lies 0.58 log units lower than the previous one.

On to `C=CCN1CCN([C@@H](c2ccccc2)c2ccc(C(=O)N(CC)CC)cc2)CC1`, for which the values for the negative-log IC50 (pIC50) (in assay [1]; in assay [2]; at Mu-type opioid receptor) were 8.39, less than 5.00 and less than 5.00, respectively.

Consider `C=CCN1C[C@H](C)N([C@@H](c2ccc(C(=S)N(CC)CC)cc2)c2cccc(OC)c2)C[C@H]1C`, for which the values for the pIC50 (in assay [1]; in assay [2]; at Mu-type opioid receptor) were 8.28, 5.07 and 5.20, respectively.

`C=CCN1CCN(C(c2ccccc2)c2ccc(C(=O)N(C)C)cc2)CC1` (configuration not stated): the pIC50 in assay [1] is 7.35; at Mu-type opioid receptor, less than 4.30.

As for `C=CCN1CCN(C(c2ccccc2)c2ccc(C(=O)N3CCCCC3)cc2)CC1` (configuration not stated), the values for the pIC50 (in assay [1]; at Mu-type opioid receptor) were 7.08 and less than 4.67, respectively.

`C=CCN1CCN(C(c2ccccc2)c2ccc(-c3cccnc3)cc2)CC1` (configuration not stated): in assay [1], the pIC50 was 6.30.

`C=CCN1CCN(C(c2ccccc2)c2ccc(-c3cccs3)cc2)CC1` (configuration not stated): the pIC50 in assay [1] was 5.59.

As for `C=CCN1CCN(C(c2ccccc2)c2ccc(C(=O)N(Cc3cccnc3)CC(OCCC)OCCC)cc2)CC1` (configuration not stated), the pIC50 was 8.40 in assay [1] and less than 5.00 at Mu-type opioid receptor.

In the case of `C=CCN1C[C@H](C)N([C@@H](c2ccc(C(=O)OC)cc2)c2cccc(OC)c2)C[C@H]1C`, the pIC50 in assay [1] is 6.62; on Mu-type opioid receptor, 5.44.

On to `C=CCN1CCN(C(c2ccccc2)c2ccc(-c3ccccn3)cc2)CC1` (configuration not stated), for which, in assay [1], the pIC50 is 6.60.

In the case of `C=CCN1CCN(C(c2ccccc2)c2ccc(C(=O)O)cc2)CC1` (configuration not stated), the pIC50 in assay [1] was 5.09.

For `C=CCN1CCN(C(c2ccccc2)c2ccc(C(=O)OC)cc2)CC1` (configuration not stated), in assay [1], the pIC50 is 6.22.

Consider `C=CCN1CCN(C(c2ccccc2)c2ccc(C(=O)N(CCC)CCC)cc2)CC1` (configuration not stated), for which the pIC50 is 8.14 in assay [1] and 4.38 at Mu-type opioid receptor.

The compound `C=CCN1CCN(C(c2ccccc2)c2ccc(-c3ccccc3)cc2)CC1` (configuration not stated) gave a pIC50 in assay [1] of 5.76.

Regarding `C=CCN1C[C@H](C)N(C(c2ccccc2)c2ccccc2)C[C@H]1C`, the pIC50 in assay [1] was 6.38; at Mu-type opioid receptor it was 6.42.

For `C=CCN1CCN([C@H](c2ccc(C(=O)N(CC)CC)cc2)c2cccc(OC)c2)CC1`, the negative-log IC50 (pIC50) in assay [1] is 8.13; in assay [2], less than 5.00; on Mu-type opioid receptor it was less than 5.00.

With `C=CCN1CCN(C(c2ccccc2)c2ccc(C(=O)N(CCC)CC3CC3)cc2)CC1` (configuration not stated), the pIC50 was 8.52 in assay [1] and less than 5.00 on Mu-type opioid receptor.

For the compound `C=CCN1C[C@H](C)N([C@H](c2ccccc2)c2ccc(C(=O)N(CC)CC)cc2)C[C@H]1C`, the pIC50 in assay [1] was 8.96; in assay [2], less than 5.00; at Mu-type opioid receptor, 5.19.

Regarding `C=CCN1CCN(C(c2ccccc2)c2ccc(C(=O)N(CC)CC)cc2)CC1` (configuration not stated), the pIC50 in assay [3] is 8.30; at Mu-type opioid receptor, less than 5.00.

Regarding `C=CCN1C[C@H](C)N([C@@H](c2ccc(-c3ccccn3)cc2)c2cccc(OC)c2)C[C@H]1C`, the values for the pIC50 (in assay [1]; in assay [2]; on Mu-type opioid receptor) were 7.66, 5.68 and 5.19, respectively.

For `C=CCN1C[C@H](C)N([C@@H](c2ccc(C(=O)O)cc2)c2cccc(OC)c2)C[C@H]1C`, the pIC50 in assay [1] is 6.35; on Mu-type opioid receptor, less than 5.00.
